Results reported in patent US6235791A, “Use of amines to produce drugs for preventing tumor cell proliferation” (Sanofi-Synthelabo, priority 1996, dated 2001).

How the values were obtained:
[1] = system: human mammary carcinoma MCF-7; test: MTT colorimetric proliferation test, 5 days; format: cell-based; conditions: MCF7, 120 h, read-out: percentage of cell proliferation relative to the untreated control taken as 100%
Description: (§1) Among other cells used, the following lines were routinely cultured in RPMI medium supplemented with 10% foetal calf serum (FCS):
human mammary carcinoma MCF-7
(§2) The antitumour activity is measured according to the colorimetry method using MTT, 3-(4,5-dimethylthiazole-2,5-diphenyltetrazolium) bromide as described by Mosmann T., Journ. of Im. Methods; 1983, 65, 55.
(§3) This colorimetric assay makes it possible to measure quantitatively the antitumour activity of a solution containing a compound used according to the invention.
(§4) According to the procedure used, the suspended cells (such as the myeloma cells) are inoculated at 2×10^3 cells/ml in 1 ml wells in defined medium. The adherent cells (such as the MCF-7 cells) are inoculated at 5×10^4 cells/ml in 1 ml wells in RPMI medium+0.5% FCS overnight. The next day, the cell carpet is washed twice and replaced by the defined medium.
(§5) The defined medium corresponds to: RPMI+10 μg/ml insulin+10 μg/ml human transferrin.
(§6) In order to carry out this test, cells are maintained in the presence of the solution containing a compound used according to the invention for 5 days, and the MTT is then added to the culture medium.
(§7) The 5 day period which was selected corresponds to the optimum time for the activity. After culturing for 5 days, the proliferation of the cells is measured by the test described above. The optical density at 570 nm is measured. A blue coloration develops in the wells where the cells are still alive. The intensity of the coloration is proportional to the quantity of live cells.

LCC2 p26-27 (MCF-7LCC2) = test: proliferation of mammary epithelial cells, IC50 after 6 days; format: cell-based, human; conditions: 6 days of treatment
Description: (§8) Another study was also performed in order to determine the effect of SR 31747 on the in vitro and in vivo growth of mammary and prostate epithelial tumour cells.
(§9) The study consisted in evaluating the potential antitumour activity of SR 31747 on the growth of a variety of cancerous breast epithelial lines. The study is carried out in vitro on cell cultures, as well as in vivo after inoculation of tumoral mammary lines in "nude" athymic mice.
(§10) The cell lines which were used are as follows:
(§11) The hormone-sensitive MCF-7 line originates from a pleural effusion of a breast adenocarcinoma. The antioestrogen-resistant MCF-7LY2 cells were obtained from the MCF-7LCC1 and MCF-7LCC2 lines were developed in nude mice, after inoculation of the MCF-7 cells. The two lines are oestrogen-independent. The MCF-7CC2 cells are also antioestrogen-resistant. The MCF-7AZTD5 line is derived from the MCF-7 line after stable transfection with the H-ras oncogene. The MCF-7AZTD5 cells are antioestrogen-resistant in vitro. All of these lines are maintained on DMEM/F12 (1/1, vol/vol) containing 10% decomplemented foetal calf serum and 16 ng/ml of human insulin. The MCF-7LCC2 line is cultured in the permanent presence of 10^-7 M hydroxytamoxifen. The MDA-MB231 tumoral mammary epithelial cells are oestrogen- and antioestrogen-insensitive. They are cultured in L15 medium supplemented with 10% FCS, 1% essential amino acids and 10 μg/ml of human insulin.
(§12) All the lines are maintained at 37° C. in a humid air/CO2 (95%/5%) atmosphere, except for the MDA-MB231 cells which are cultured in the absence of CO2. THe cell lines are checked regularly free of mycoplasms.
(§13) Table B--Effect of SR 31747 on the proliferation of mammary epithelial cells. Determination of the IC50 after 6 days of treatment--medium changed every 48 hours

[2] = system: human lung carcinoma A549; test: MTT colorimetric proliferation test, 5 days; format: cell-based; conditions: 120 h, read-out: percentage of cell proliferation relative to the untreated control taken as 100%
Description: as §1
human lung carcinoma A549
as §2, §3, §4, §5, §6, §7

MDA-MB231 cells = test: tumours developed in ovariectomized nude mice from MDA-MB231 cells; format: in vivo; conditions: 500 μg SR 31747 + E2 daily intraperitoneally, to day 92
Description: The inoculation and treatment of the animals were carried out as follows:
The animals used are "nude" female athymic mice, which may or may not have been ovariectomized, obtained at 4 weeks old (R. Janvier). Before inoculating the hormone-sensitive mammary cells (MCF-7, MCF-7AZTD5), the animals receive 10 μl pf ethanolic 10 ^-5 oestradiol solution applied percutaneously. The treatment is repeated three times over one week. One million cells suspended in 100 μl of PBS/Ca are inoculated subcutaneously above each of the hips. The following day, the animals receive 200 μl of injection solution (ethanol/Tween 80/physiological saline, 1/1/18, vol/vol) containing the various reactions at the predefined concentrations. The injections are made intraperitoneally and are repeated every day.
FIGS. 1 and 2 indicate the effect of SR 31747 on tumours developed in ovariectomized "nude" mice from MDA-MB231 cells.
Each mouse receives 5×10^6 MDA-MB231 cells above each hip (i.e. 2 points of inoculation per mouse). The animals are then treated daily via the intraperitoneal route and receive 500 μg SR 31747+0.003 μg E2 (20 mice). The control batch receives 0.0003 μg E2 (20 mice). The amount (as a percentage of inoculated tumours) and size of the tumours developed are determined at different times in the course of the treatment. At the end of the treatment (day 92), the animals are sacrificed and weighed. […]

LY2 p22-23 (MCF-7LY2) = test: proliferation of mammary epithelial cells, IC50 after 6 days; format: cell-based; conditions: Homo sapiens, Epithelial cell, 144 h; LY2 p22-23, 10% FCS, 6 days of treatment
Description: as §8, §9, §10, §11, §12, §13

[3] = system: mammary tumoral epithelial cells; test: proliferation of tumoral breast epithelial lines, summary statements; format: cell-based
Description: as §8, §9, §10
as §11, with “They are cultured in L15 medium supplemented with 10% FCS, 1% essential amino acids and 10 μg/ml of human insulin.” left out

tumour cells = test: biochemical and pharmacological studies illustrated above (binding and antiproliferative tests)
Description: The membranes were prepared as follows: 10 MCF-7 cells are homogenized for 10 seconds on a Polytron® in 10 ml of Hepes® buffer pH=7.4 containing: 210 mM D-mannitol, 70 mM sucrose, 1 mM EDTA, 0.3 mM PMSF. The homogenate is centrifuged at 650 xg for 15 minutes and the supernatant is then taken up and centrifuged for 1 at 100,000 xg. The pellet is resuspended in Tris-HCl buffer pH=7.4 at a concentration of 1 mg/ml and stored at-70° C. The total binding is carried out in a 5 ml tube into which the following are introduced:
The non-specific binding is performed by adding 25 μl of 10^-5 M SR 31747 to the above solution (final volume 250 μl) and then incubating for 30 at 25° C. The free and bound fractions are separated by placing 200 μl on a column of 1 ml of Sephadex® LH 20 and the radioactivity is then counted on the first 2 ml obtained by eluting the column with 50 mM Tris buffer ph=7.4.
The 5 day period which was selected corresponds to the optimum time for the activity. After culturing for 5 days, the proliferation of the cells is measured by the test described above. The optical density at 570 nm is measured. […] The intensity of the coloration is proportional to the quantity of live cells.

SN 47 p4 normal cells = test: proliferation of mammary epithelial cells, IC50 after 6 days; format: cell-based; conditions: Epithelial cell, 144 h, 6 days of treatment
Description: as §8, §9, §13

293 = test: MTT colorimetric proliferation test, 5 days; format: cell-based; conditions: Homo sapiens, read-out: percentage of cell proliferation relative to the untreated control taken as 100%
Description: as §1
human kidney carcinoma 294
as §2, §3, §4, §5, §6, §7

How did the activity at 10 pM ([1]; MCF-7, 10 pM) turn out when `CCN(C/C=C\c1ccc(C2CCCCC2)c(Cl)c1)C1CCCCC1` [SR 31747, cis-N-Cyclohexyl-N-ethyl [3-(3-chloro-4-cyclo-hexylphenyl)allyl]amine] was run?
Its activity at 10 pM is 100%.

What about the activity at 0.0001 µM ([1]; MCF-7, 100 pM) of the same compound?
The activity at 0.0001 µM was 100%.

And the activity at 0.001 µM ([1]; MCF-7, 1 nM)?
Its activity at 0.001 µM is 83%.

What about the activity at 0.01 µM ([1]; MCF-7, 10 nM) of the same compound?
Its activity at 0.01 µM is 75%.

And the activity at 0.1 µM ([1]; MCF-7, 100 nM)?
The activity at 0.1 µM was 58%.

What about the activity at 1 µM ([1]; MCF-7, 1 μM) of the same compound?
The activity at 1 µM was 34%.

What about the activity at 10 µM ([1]; MCF-7, 10 μM) of the same compound?
The activity at 10 µM was 5%.

What about the IC50 (LCC2 p26-27 (MCF-7LCC2); Homo sapiens, LCC2, 144 h, LCC2 p26-27, 0.1 DCC) of the same compound?
Its IC50 is 2 nM.

What about the IC50 (LCC2 p26-27 (MCF-7LCC2); Homo sapiens, LCC2, 144 h, LCC2 p26-27, 5% DCC) of the same compound?
Its IC50 is 400 nM.

And the IC50 (LCC2 p26-27 (MCF-7LCC2); LCC2 p26-27, 5% DCC)?
The IC50 was 300 nM.

And the activity at 10 pM ([2]; A549, 10 pM)?
The activity at 10 pM was 100%.

And the activity at 0.0001 µM ([2]; A549, 100 pM)?
The activity at 0.0001 µM was 88%.

What about the activity at 0.001 µM ([2]; A549, 1 nM) of the same compound?
Its activity at 0.001 µM is 56%.

And the activity at 0.01 µM ([2]; A549, 10 nM)?
The activity at 0.01 µM was 50%.

And the activity at 0.1 µM ([2]; A549, 100 nM)?
Its activity at 0.1 µM is 38%.

And the activity at 1 µM ([2]; A549, 1 μM)?
Its activity at 1 µM is 14%.

And the activity at 10 µM ([2]; A549, 10 μM)?
Its activity at 10 µM is 10%.

What about the “size, weight and frequency of tumours developed” value (MDA-MB231 cells) of the same compound?
The value was “tendency to reduce the size, weight and frequency of tumours”.

What about the IC50 (LY2 p22-23 (MCF-7LY2)) of the same compound?
Its IC50 is over 100 nM.

And the “inhibition of cell proliferation at high concentration (cytotoxic effects)” value ([3]; 10^-6 M and occasionally 10^-7 M SR 31747)?
Its value is “virtually total inhibitions of the cell proliferation”.

What about the “action on the proliferation of tumor epithelial lines” value ([3]; reduced concentrations of saline (serum)) of the same compound?
The value was “exerts an inhibitory action on the proliferation of all the tumor epithelial lines tested”.

And the “activity in the biochemical and pharmacological studies” value (tumour cells)?
The value was “best activity”.

And the IC50 (SN 47 p4 normal cells; 0.5% FCS)?
Its IC50 is 400 nM.

What about the IC50 (SN 47 p4 normal cells; 10% FCS) of the same compound?
The IC50 was over 10000 nM.

What about the activity at 10 pM (293; HEK293, 120 h, 293, 10 pM) of the same compound?
Its activity at 10 pM is 100%.

And the activity at 0.0001 µM (293; HEK293, 120 h, 293, 100 pM)?
Its activity at 0.0001 µM is 84%.

And the activity at 0.001 µM (293; HEK293, 120 h, 293, 1 nM)?
Its activity at 0.001 µM is 80%.

What about the activity at 0.01 µM (293; HEK293, 120 h, 293, 10 nM) of the same compound?
The activity at 0.01 µM was 43%.

And the activity at 0.1 µM (293; HEK293, 120 h, 293, 100 nM)?
Its activity at 0.1 µM is 36%.

And the activity at 1 µM (293; HEK293, 120 h, 293, 1 μM)?
The activity at 1 µM was 10%.

What about the activity at 10 µM (293; HEK293, 120 h, 293, 10 μM) of the same compound?
Its activity at 10 µM is 7%.
